Results on three compounds are retold here after patent US12533333B2, “Method of treatment of obesity” (Queen Mary University of London, priority 2016, dated 2026).

The test system of test [1] is phosphorylated CaMKII. Briefly: pCaMKII activation in human colonic mucosa / proximal colon. It is filed as cell-based. As to conditions: 100 MM (heading of Example 6), FIG. 9.
Test [2] relates to phosphorylated ERK. Briefly: pERK activation in human colonic mucosa / proximal colon. Format: cell-based.
Test [3] deals with phosphorylated CaMKII. To be noted: via GPR120, not via pERK; background; cited from earlier work.
Test [4] deals with phosphorylated ERK. As to conditions: human colonic mucosa / enteroendocrine cells, previously shown; cited from earlier work.
The conditions of test [5]: infused into the small intestine through a nasogastric tube; cited from earlier work.
For test [6] the following is noted: in vivo; cited from earlier work.

“Also recorded” adds a separate entry of the source.

In the case of `CC/C=C\C/C=C\C/C=C\CCCCCCCC(=O)O` [ALA, (9Z,12Z,15Z)-9,12,15-Octadecatrienoic acid], in the test with phosphorylated CaMKII [1], the “expression of cell activation marker pCamKii” value is on record as “potently induce expression; also recorded: activate”. Also, the “expression of cell activation marker pERK” value in the test on phosphorylated ERK [2] (human colonic mucosa, 100 MM (heading of Example 6), FIG. 9) is “potently induce expression; also recorded: activate”. In the test on phosphorylated CaMKII [3], the “activation of pCalmodulin kinase II (pCAMKII)” value is listed as “activate”.

Turning to `c1ccc2c(Cc3c[nH]c4ccccc34)c[nH]c2c1` [DIM, 3,3′-diindolylmethane], the “activation of pERK in colonocytes” value in the test on phosphorylated ERK [2] (in combination with GPR120 agonist TUG891 and GPR84 agonist lauric acid (FIG. 8)) is listed as “potently activates”.

On to `CCCCCCCCCCCC(=O)O` [lauric acid], for which, in the test on phosphorylated ERK [4], the “activation of intracellular pathway as measured by phosphorylated ERK” value was “activates”. The food intake result in test [5] is recorded as “reduces food intake more potently than other fatty acids”. Moreover, in test [6], the “plasma levels of glucagon-like peptide-1 (GLP-1)” value is “increasing” and the “plasma levels of peptide YY (PYY)” value is reported as “increasing”.
